# Numbers after ± are expanded uncertainties.
# Conditions: Liquid; for viscosity: 101.33 kPa, Falling or rolling sphere viscometry; for mass density: Vibrating tube method
smiles,measurement,setting,value
CCCCCCCCCCCCCC[P+](CCCCCC)(CCCCCC)CCCCCC.FC(F)(F)C(F)(F)[P-](F)(F)(F)(C(F)(F)C(F)(F)F)C(F)(F)C(F)(F)F,viscosity,293.15 K,470.83 ± 36 mPa·s
same,mass density,"293.2 K, 100 kPa",1185.7 ± 12 kg/m3
same,mass density,"293.21 K, 500 kPa",1185.9 ± 12 kg/m3
same,mass density,"293.22 K, 1000 kPa",1185.9 ± 12 kg/m3
same,mass density,"293.22 K, 2500 kPa",1186.7 ± 12 kg/m3
same,mass density,"293.22 K, 5000 kPa",1188.3 ± 12 kg/m3
same,mass density,"293.22 K, 10000 kPa",1191.3 ± 12 kg/m3
same,mass density,"293.22 K, 25000 kPa",1201.2 ± 12 kg/m3
same,mass density,"293.23 K, 15000 kPa",1194.7 ± 12 kg/m3
same,mass density,"293.23 K, 20000 kPa",1198 ± 12 kg/m3
same,viscosity,303.15 K,259.01 ± 15 mPa·s
same,mass density,"303.19 K, 100 kPa",1177.4 ± 12 kg/m3
same,mass density,"303.19 K, 500 kPa",1177.7 ± 12 kg/m3
same,mass density,"303.19 K, 1000 kPa",1177.7 ± 12 kg/m3
same,mass density,"303.21 K, 2500 kPa",1178.5 ± 12 kg/m3
same,mass density,"303.22 K, 5000 kPa",1180.1 ± 12 kg/m3
same,mass density,"303.22 K, 10000 kPa",1183.3 ± 12 kg/m3
same,mass density,"303.23 K, 15000 kPa",1186.8 ± 12 kg/m3
same,mass density,"303.23 K, 20000 kPa",1190.2 ± 12 kg/m3
same,mass density,"303.25 K, 25000 kPa",1193.5 ± 12 kg/m3
same,mass density,"313.15 K, 100 kPa",1169.1 ± 12 kg/m3
same,viscosity,313.15 K,155.29 ± 7.2 mPa·s
same,mass density,"313.17 K, 500 kPa",1169.4 ± 12 kg/m3
same,mass density,"313.17 K, 1000 kPa",1169.4 ± 12 kg/m3
same,mass density,"313.17 K, 2500 kPa",1170.3 ± 12 kg/m3
same,mass density,"313.17 K, 5000 kPa",1172 ± 12 kg/m3
same,mass density,"313.17 K, 10000 kPa",1175.4 ± 12 kg/m3
same,mass density,"313.17 K, 15000 kPa",1179.1 ± 12 kg/m3
same,mass density,"313.17 K, 20000 kPa",1182.6 ± 12 kg/m3
same,mass density,"313.17 K, 25000 kPa",1186 ± 12 kg/m3
same,mass density,"323.14 K, 15000 kPa",1171.1 ± 12 kg/m3
same,viscosity,323.15 K,94.33 ± 3.4 mPa·s
same,mass density,"323.15 K, 500 kPa",1161 ± 12 kg/m3
same,mass density,"323.15 K, 1000 kPa",1161.1 ± 12 kg/m3
same,mass density,"323.15 K, 5000 kPa",1163.8 ± 12 kg/m3
same,mass density,"323.15 K, 10000 kPa",1167.3 ± 12 kg/m3
same,mass density,"323.15 K, 20000 kPa",1174.7 ± 12 kg/m3
same,mass density,"323.16 K, 100 kPa",1160.6 ± 12 kg/m3
same,mass density,"323.16 K, 2500 kPa",1162 ± 12 kg/m3
same,mass density,"323.16 K, 25000 kPa",1178.3 ± 12 kg/m3
same,mass density,"333.11 K, 100 kPa",1152.6 ± 12 kg/m3
same,mass density,"333.12 K, 500 kPa",1152.9 ± 12 kg/m3
same,mass density,"333.12 K, 1000 kPa",1153 ± 12 kg/m3
same,mass density,"333.12 K, 2500 kPa",1154 ± 12 kg/m3
same,mass density,"333.12 K, 10000 kPa",1159.5 ± 12 kg/m3
same,mass density,"333.13 K, 5000 kPa",1156.8 ± 12 kg/m3
same,mass density,"333.13 K, 15000 kPa",1163.4 ± 12 kg/m3
same,mass density,"333.13 K, 25000 kPa",1171 ± 12 kg/m3
same,mass density,"333.14 K, 20000 kPa",1167.2 ± 12 kg/m3
same,viscosity,333.15 K,65 ± 2 mPa·s
same,mass density,"343.07 K, 500 kPa",1145 ± 12 kg/m3
same,mass density,"343.07 K, 1000 kPa",1145.1 ± 12 kg/m3
same,mass density,"343.08 K, 2500 kPa",1146.1 ± 12 kg/m3
same,mass density,"343.08 K, 10000 kPa",1151.9 ± 12 kg/m3
same,mass density,"343.08 K, 15000 kPa",1156 ± 12 kg/m3
same,mass density,"343.09 K, 5000 kPa",1148.1 ± 12 kg/m3
same,mass density,"343.09 K, 25000 kPa",1163.7 ± 12 kg/m3
same,mass density,"343.1 K, 20000 kPa",1159.9 ± 12 kg/m3
same,mass density,"343.13 K, 100 kPa",1144.5 ± 11 kg/m3
same,viscosity,343.15 K,42.67 ± 1.3 mPa·s
same,viscosity,353.15 K,30.35 ± 0.94 mPa·s
same,mass density,"353.2 K, 100 kPa",1136.5 ± 11 kg/m3
same,mass density,"353.22 K, 500 kPa",1137 ± 11 kg/m3
same,mass density,"353.22 K, 2500 kPa",1138.2 ± 11 kg/m3
same,mass density,"353.22 K, 5000 kPa",1140.2 ± 11 kg/m3
same,mass density,"353.23 K, 1000 kPa",1137.1 ± 11 kg/m3
same,mass density,"353.23 K, 10000 kPa",1144.2 ± 11 kg/m3
same,mass density,"353.23 K, 15000 kPa",1148.4 ± 12 kg/m3
same,mass density,"353.25 K, 20000 kPa",1152.5 ± 12 kg/m3
same,mass density,"353.25 K, 25000 kPa",1156.4 ± 12 kg/m3
same,viscosity,363.15 K,22.81 ± 0.71 mPa·s
same,viscosity,373.15 K,17.53 ± 0.54 mPa·s
CCCC[N+]1(C)CCCC1.FC(F)(F)C(F)(F)[P-](F)(F)(F)(C(F)(F)C(F)(F)F)C(F)(F)C(F)(F)F,viscosity,293.15 K,333.79 ± 22 mPa·s
same,mass density,"293.17 K, 5000 kPa",1606.7 ± 16 kg/m3
same,mass density,"293.17 K, 10000 kPa",1610.2 ± 16 kg/m3
same,mass density,"293.17 K, 15000 kPa",1614.1 ± 16 kg/m3
same,mass density,"293.17 K, 20000 kPa",1618 ± 16 kg/m3
same,mass density,"293.17 K, 25000 kPa",1621.7 ± 16 kg/m3
same,mass density,"293.18 K, 2500 kPa",1604.9 ± 16 kg/m3
same,mass density,"293.19 K, 100 kPa",1603.7 ± 16 kg/m3
same,mass density,"293.19 K, 500 kPa",1604 ± 16 kg/m3
same,mass density,"293.19 K, 1000 kPa",1603.9 ± 16 kg/m3
same,viscosity,303.15 K,179.86 ± 8.9 mPa·s
same,mass density,"303.18 K, 100 kPa",1592.8 ± 16 kg/m3
same,mass density,"303.19 K, 1000 kPa",1593.1 ± 16 kg/m3
same,mass density,"303.2 K, 500 kPa",1593.1 ± 16 kg/m3
same,mass density,"303.25 K, 10000 kPa",1599.5 ± 16 kg/m3
same,mass density,"303.25 K, 20000 kPa",1607.6 ± 16 kg/m3
same,mass density,"303.25 K, 25000 kPa",1611.4 ± 16 kg/m3
same,mass density,"303.26 K, 2500 kPa",1593.9 ± 16 kg/m3
same,mass density,"303.26 K, 5000 kPa",1595.8 ± 16 kg/m3
same,mass density,"303.26 K, 15000 kPa",1603.6 ± 16 kg/m3
same,viscosity,313.15 K,106 ± 4 mPa·s
same,mass density,"313.19 K, 10000 kPa",1589.1 ± 16 kg/m3
same,mass density,"313.2 K, 100 kPa",1581.9 ± 16 kg/m3
same,mass density,"313.2 K, 500 kPa",1582.3 ± 16 kg/m3
same,mass density,"313.2 K, 1000 kPa",1582.3 ± 16 kg/m3
same,mass density,"313.2 K, 5000 kPa",1585.3 ± 16 kg/m3
same,mass density,"313.2 K, 20000 kPa",1597.4 ± 16 kg/m3
same,mass density,"313.21 K, 2500 kPa",1583.3 ± 16 kg/m3
same,mass density,"313.21 K, 15000 kPa",1593.3 ± 16 kg/m3
same,mass density,"313.21 K, 25000 kPa",1601.4 ± 16 kg/m3
same,mass density,"323.14 K, 100 kPa",1571 ± 16 kg/m3
same,mass density,"323.14 K, 500 kPa",1571.4 ± 16 kg/m3
same,mass density,"323.14 K, 2500 kPa",1572.5 ± 16 kg/m3
same,mass density,"323.14 K, 10000 kPa",1578.5 ± 16 kg/m3
same,mass density,"323.14 K, 15000 kPa",1582.9 ± 16 kg/m3
same,mass density,"323.14 K, 20000 kPa",1587.2 ± 16 kg/m3
same,mass density,"323.14 K, 25000 kPa",1591.3 ± 16 kg/m3
same,viscosity,323.15 K,68.08 ± 2.1 mPa·s
same,mass density,"323.15 K, 1000 kPa",1571.5 ± 16 kg/m3
same,mass density,"323.15 K, 5000 kPa",1574.6 ± 16 kg/m3
same,viscosity,333.15 K,45.37 ± 1.4 mPa·s
same,mass density,"333.17 K, 100 kPa",1560.4 ± 16 kg/m3
same,mass density,"333.17 K, 500 kPa",1560.8 ± 16 kg/m3
same,mass density,"333.17 K, 1000 kPa",1560.9 ± 16 kg/m3
same,mass density,"333.17 K, 5000 kPa",1564.2 ± 16 kg/m3
same,mass density,"333.18 K, 2500 kPa",1562 ± 16 kg/m3
same,mass density,"333.18 K, 10000 kPa",1568.2 ± 16 kg/m3
same,mass density,"333.18 K, 15000 kPa",1572.7 ± 16 kg/m3
same,mass density,"333.18 K, 20000 kPa",1577.2 ± 16 kg/m3
same,mass density,"333.18 K, 25000 kPa",1581.4 ± 16 kg/m3
same,viscosity,343.15 K,31.9 ± 0.99 mPa·s
same,mass density,"343.16 K, 100 kPa",1549.9 ± 16 kg/m3
same,mass density,"343.17 K, 500 kPa",1550.4 ± 16 kg/m3
same,mass density,"343.18 K, 1000 kPa",1550.5 ± 16 kg/m3
same,mass density,"343.19 K, 2500 kPa",1551.6 ± 16 kg/m3
same,mass density,"343.2 K, 5000 kPa",1553.9 ± 16 kg/m3
same,mass density,"343.2 K, 10000 kPa",1558.1 ± 16 kg/m3
same,mass density,"343.2 K, 15000 kPa",1562.8 ± 16 kg/m3
same,mass density,"343.2 K, 20000 kPa",1567.4 ± 16 kg/m3
same,mass density,"343.21 K, 25000 kPa",1571.7 ± 16 kg/m3
same,viscosity,353.15 K,23.42 ± 0.72 mPa·s
same,mass density,"353.17 K, 100 kPa",1539.5 ± 15 kg/m3
same,mass density,"353.17 K, 500 kPa",1540.1 ± 15 kg/m3
same,mass density,"353.17 K, 5000 kPa",1543.8 ± 15 kg/m3
same,mass density,"353.18 K, 1000 kPa",1540.3 ± 15 kg/m3
same,mass density,"353.18 K, 2500 kPa",1541.4 ± 15 kg/m3
same,mass density,"353.18 K, 15000 kPa",1553 ± 16 kg/m3
same,mass density,"353.19 K, 10000 kPa",1548.2 ± 16 kg/m3
same,mass density,"353.19 K, 20000 kPa",1557.7 ± 16 kg/m3
same,mass density,"353.19 K, 25000 kPa",1562.2 ± 16 kg/m3
same,viscosity,363.15 K,17.58 ± 0.54 mPa·s
same,viscosity,373.15 K,13.71 ± 0.42 mPa·s
